Counter-ions that a name gives are not always drawn. Some results are limits rather than exact numbers.

In test [1] the target is T1, NMDA receptor subunits 1A/2A (Rattus norvegicus, UniProt P35439+Q00959).
T1 construct: expressed in transfected cells; host or cells: Xenopus laevis oocytes (cRNA injection; clones from Dr. P. H. Seeburg)
In words: Electrophysiological assay at NMDA receptor subunits expressed in Xenopus oocytes, 1A/2A. It is filed as cell-based. To be noted: glutamate 100 μm and glycine 1-100 μm. The protocol:
(§1) Many of the properties of native NMDA receptors are seen in recombinant homomeric NR1 receptors. These properties are altered by the NR2 subunits. Recombinant NMDA receptors expressed in Xenopus oocytes have been studied by voltage-clamp recording, as has developmental and regional expression of the mRNAs encoding NMDA receptor subunits. Electrophysiological assays were utilized to characterize the actions of compounds at NMDA receptors expressed in Xenopus oocytes. The compounds were assayed at four subunit combinations of cloned rat NMDA receptors, corresponding to three putative NMDA receptor subtypes [Moriyoshi, et al. Nature 1991, 354, 31-37; Monyer et al, Science 1992, 256, 1217-1221; Kutsuwada et al, Nature 1992, 358, 36-41; Sugihara et al, Biochem. Biophys Res. Commun. 1992, 185, 826-832].
(§2) Electrophysiological Assays at NMDA Receptor Subunits
(§3) Preparation of RNA. cDNA clones encoding the NR1A, NR2A, NR2B, NR2C and NR2D rat NMDA receptor subtypes were provided by Dr. P. H. Seeburg (see, Moriyoshi et al., Nature (Lond.) 354:31-37 (1991); Kutsuwada et al., Nature (Lond.) 358:36-41 (1992) Monyer et al., Science (Washington, D.C.) 256:1217-1221 (1992); Ikeda et al., FEBS Lett. 313:34-38 (1992); Ishii et al., J. Biol. Chem. 268:2836-2843 (1993) for details of these clones or their mouse homologs). The clones were transformed into appropriate host bacteria and plasmid preparations were made with conventional DNA purification techniques. A sample of each clone was linearized by restriction enzyme digestion and cRNA was synthesized with T3 RNA polymerase. The cRNA was diluted to 400 ng/μl and stored in 1 μl aliquots at -80° C. until injection.
(§4) The Xenopus oocyte expression system. Mature female Xenopus laevis were anaesthetized (20-40 min) using 0.15% 3-aminobenzoic acid ethyl ester (MS-222) and 2-4 ovarian lobes were surgically removed. Oocytes at developmental stages IV-VI (Dumont, J. N., J. Morphol. 136:153-180 (1972)), were dissected from the ovary still surrounded by enveloping ovarian tissues. Follicle-enclosed oocytes were micro-injected with 1:1 mixtures of cRNA:NR1A+NR2A, 2B, 2C or 2D; injecting ~2,5, or 20 ng of RNA encoding each receptor subunit. NR1A encoding cRNA was injected alone at ~20 ng. Oocytes were stored in Barth's medium containing (in mM):NaCl, 88; KCl, 1; CaCl2, 0.41; Ca(NO3)2, 0.33; MgSO4, 0.82 NaHCO3, 2.4; HEPES 5, pH 7.4, with 0.1 mg/ml gentamicin sulphate. While oocytes were still surrounded by enveloping ovarian tissues the Barth's medium was supplemented with 0.1% bovine serum. Oocytes were defolliculated 1-2 days following injections by treatment with collagenase (0.5 mg/ml Sigma Type I for 0.5-1 hr) (Miledi and Woodward, J. Physiol. (Lond.) 416:601-621 (1989)) and subsequently stored in serum-free medium.
(§5) Electrical recordings were made using a conventional two-electrode voltage clamp (Dagan TEV-200) over periods ranging between 3-21 days following injection. (Woodward et al., Mol. Pharmacol. 41: 89-103 (1992)). Oocytes were placed in a 0.1 ml recording chamber continuously perfused (5-15 ml min^-1 ) with frog Ringer's solution containing (in mM):NaCl, 115; KCl, 2; CaCl2, 1.8; HEPES, 5; pH 7.4. Drugs were applied by bath perfusion. Using oocytes expressing different subunit combinations of NMDA receptor, NMDA currents were activated by co-application of glutamate (100 μm) and glycine (1-100 μm). Inhibitory potency of the novel antagonists was assessed on responses elicited by fixed concentrations of glutamate and glycine, by measuring reductions in current induced by progressively increasing concentrations of antagonist. Concentration-inhibition curves were fit with equation 1.
(§6) I/Icontrol =1/(1+([antagonist]/10^-pIC50)^n) Eq. 1
(§7) in which Icontrol is the current evoked by agonists alone, pIC50 =-log IC50, IC50 is the concentration of antagonist that produces half maximal inhibition, and n is the slope factor. (De Lean et al., Am. J. Physiol. 235:E97-102 (1978)). […]

Test [2] has as its system Maximal Electroshock-induced Seizures. In words: Maximal electroshock-induced seizures (MES). Type of test: in vivo. To be noted: Mus musculus; mice; 50 mA, 60 pulses/sec, 1 sec. (Protection in the maximal electroshock model is a classic sign of anticonvulsant action.)
From the text: Seizures were induced by application of current (50 mA, 60 pulses/sec, 0.8 sec pulse width, 1 sec duration, d.c.) through saline-coated corneal electrodes using a Ugo Basile ECT device (Model 7801). […] A tonic seizure was defined as a hindlimb extension in excess of 90 degrees from the plane of the body.
The target in test [3] is T2, NMDA receptor subunits 1A/2B (Rattus norvegicus, UniProt P35439+Q00960).
T2 construct: expressed in transfected cells; host or cells: Xenopus laevis oocytes (cRNA injection; clones from Dr. P. H. Seeburg)
As to the kind of experiment: Electrophysiological assay at NMDA receptor subunits expressed in Xenopus oocytes, 1A/2B. Type of test: cell-based. To be noted: Xenopus oocytes; glutamate 100 μm and glycine 1-100 μm; read-out: Subunits IC50, 1A/2B. The protocol:
as §1, §2, §3, §4, §5, §6, §7

Test [4] has as its target T3, NMDA receptor subunits 1A/2C (Rattus norvegicus, UniProt P35439+Q00961).
T3 construct: expressed in transfected cells; host or cells: Xenopus laevis oocytes (cRNA injection; clones from Dr. P. H. Seeburg)
In words: Electrophysiological assay at NMDA receptor subunits expressed in Xenopus oocytes, 1A/2C. Type of test: cell-based. To be noted: Xenopus oocytes; glutamate 100 μm and glycine 1-100 μm; read-out: Subunits IC50, 1A/2C. On the procedure:
as §1, §2, §3, §4, §5, §6, §7

T2 sequence (Q00960 27-1482, other chains not shown): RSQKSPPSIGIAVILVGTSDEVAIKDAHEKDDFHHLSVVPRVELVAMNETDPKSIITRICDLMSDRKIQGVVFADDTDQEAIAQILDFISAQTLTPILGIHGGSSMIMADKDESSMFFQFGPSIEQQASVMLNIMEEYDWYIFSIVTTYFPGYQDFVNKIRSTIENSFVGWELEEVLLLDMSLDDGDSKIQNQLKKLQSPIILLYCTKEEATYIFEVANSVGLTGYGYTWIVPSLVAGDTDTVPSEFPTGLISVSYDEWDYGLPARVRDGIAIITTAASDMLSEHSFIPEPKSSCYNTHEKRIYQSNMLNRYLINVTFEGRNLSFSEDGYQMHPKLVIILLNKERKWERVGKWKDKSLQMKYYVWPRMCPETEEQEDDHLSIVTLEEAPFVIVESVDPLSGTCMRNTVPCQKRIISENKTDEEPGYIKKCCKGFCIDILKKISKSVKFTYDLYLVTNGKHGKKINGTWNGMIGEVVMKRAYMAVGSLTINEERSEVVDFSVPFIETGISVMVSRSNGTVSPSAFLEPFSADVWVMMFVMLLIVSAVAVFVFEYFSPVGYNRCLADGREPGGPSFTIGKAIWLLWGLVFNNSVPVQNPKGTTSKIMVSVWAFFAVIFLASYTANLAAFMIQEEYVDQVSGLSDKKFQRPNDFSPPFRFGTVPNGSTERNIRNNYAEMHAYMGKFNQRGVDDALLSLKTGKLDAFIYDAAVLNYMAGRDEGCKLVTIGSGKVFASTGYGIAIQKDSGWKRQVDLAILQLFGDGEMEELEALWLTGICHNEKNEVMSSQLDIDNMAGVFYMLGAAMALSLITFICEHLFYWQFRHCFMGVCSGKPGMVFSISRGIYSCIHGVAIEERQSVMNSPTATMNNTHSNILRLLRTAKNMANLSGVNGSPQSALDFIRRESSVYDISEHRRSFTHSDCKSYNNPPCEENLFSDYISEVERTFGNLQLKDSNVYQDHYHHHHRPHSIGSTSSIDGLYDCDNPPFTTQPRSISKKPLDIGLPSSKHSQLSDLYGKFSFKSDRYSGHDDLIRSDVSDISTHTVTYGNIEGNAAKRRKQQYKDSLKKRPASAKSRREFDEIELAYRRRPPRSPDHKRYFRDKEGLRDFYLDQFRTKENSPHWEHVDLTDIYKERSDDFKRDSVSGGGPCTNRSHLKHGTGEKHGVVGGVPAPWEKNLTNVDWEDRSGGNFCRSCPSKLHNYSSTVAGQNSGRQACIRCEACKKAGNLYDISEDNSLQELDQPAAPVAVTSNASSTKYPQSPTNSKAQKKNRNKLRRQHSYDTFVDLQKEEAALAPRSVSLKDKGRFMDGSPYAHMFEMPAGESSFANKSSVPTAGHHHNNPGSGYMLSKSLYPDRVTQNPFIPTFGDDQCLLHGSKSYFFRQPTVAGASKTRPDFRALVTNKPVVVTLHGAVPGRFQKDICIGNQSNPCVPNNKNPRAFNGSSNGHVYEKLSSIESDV
T1 sequence (Q00959 20-1464 limits assumed, other chains not shown): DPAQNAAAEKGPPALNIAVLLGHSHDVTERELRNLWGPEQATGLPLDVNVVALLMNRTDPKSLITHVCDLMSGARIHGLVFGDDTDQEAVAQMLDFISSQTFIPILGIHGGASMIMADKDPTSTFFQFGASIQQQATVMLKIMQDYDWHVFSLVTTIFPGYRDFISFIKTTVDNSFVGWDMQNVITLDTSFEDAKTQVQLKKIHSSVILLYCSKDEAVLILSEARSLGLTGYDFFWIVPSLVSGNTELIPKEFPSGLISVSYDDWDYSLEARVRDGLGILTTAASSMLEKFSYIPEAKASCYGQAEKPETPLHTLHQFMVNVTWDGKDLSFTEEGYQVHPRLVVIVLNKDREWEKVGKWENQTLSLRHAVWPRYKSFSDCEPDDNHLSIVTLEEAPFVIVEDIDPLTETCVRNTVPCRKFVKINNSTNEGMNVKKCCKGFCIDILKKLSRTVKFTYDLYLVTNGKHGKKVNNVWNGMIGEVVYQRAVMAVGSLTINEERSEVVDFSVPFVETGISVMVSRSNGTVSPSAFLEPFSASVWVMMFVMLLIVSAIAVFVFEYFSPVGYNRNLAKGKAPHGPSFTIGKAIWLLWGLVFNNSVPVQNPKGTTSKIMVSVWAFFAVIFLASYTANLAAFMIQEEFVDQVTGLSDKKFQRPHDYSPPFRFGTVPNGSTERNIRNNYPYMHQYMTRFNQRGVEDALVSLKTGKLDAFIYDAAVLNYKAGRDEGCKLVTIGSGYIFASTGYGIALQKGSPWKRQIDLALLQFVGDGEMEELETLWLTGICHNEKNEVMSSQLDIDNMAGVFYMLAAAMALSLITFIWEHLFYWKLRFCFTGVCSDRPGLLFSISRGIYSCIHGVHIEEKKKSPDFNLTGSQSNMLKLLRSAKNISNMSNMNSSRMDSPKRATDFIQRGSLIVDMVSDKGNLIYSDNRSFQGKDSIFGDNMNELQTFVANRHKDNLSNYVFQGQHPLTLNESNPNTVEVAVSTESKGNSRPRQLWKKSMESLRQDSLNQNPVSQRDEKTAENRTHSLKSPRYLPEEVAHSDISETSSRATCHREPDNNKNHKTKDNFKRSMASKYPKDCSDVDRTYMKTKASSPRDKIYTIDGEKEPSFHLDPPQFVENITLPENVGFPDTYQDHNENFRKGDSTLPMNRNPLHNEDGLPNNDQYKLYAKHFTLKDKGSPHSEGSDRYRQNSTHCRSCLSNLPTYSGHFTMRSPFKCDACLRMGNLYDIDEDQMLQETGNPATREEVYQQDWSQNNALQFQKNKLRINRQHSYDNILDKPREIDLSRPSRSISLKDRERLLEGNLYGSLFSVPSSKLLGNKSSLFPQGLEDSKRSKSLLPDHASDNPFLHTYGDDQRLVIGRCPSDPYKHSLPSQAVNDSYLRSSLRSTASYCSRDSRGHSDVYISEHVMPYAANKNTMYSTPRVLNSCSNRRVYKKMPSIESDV
T3 sequence (Q00961 20-1237, other chains not shown): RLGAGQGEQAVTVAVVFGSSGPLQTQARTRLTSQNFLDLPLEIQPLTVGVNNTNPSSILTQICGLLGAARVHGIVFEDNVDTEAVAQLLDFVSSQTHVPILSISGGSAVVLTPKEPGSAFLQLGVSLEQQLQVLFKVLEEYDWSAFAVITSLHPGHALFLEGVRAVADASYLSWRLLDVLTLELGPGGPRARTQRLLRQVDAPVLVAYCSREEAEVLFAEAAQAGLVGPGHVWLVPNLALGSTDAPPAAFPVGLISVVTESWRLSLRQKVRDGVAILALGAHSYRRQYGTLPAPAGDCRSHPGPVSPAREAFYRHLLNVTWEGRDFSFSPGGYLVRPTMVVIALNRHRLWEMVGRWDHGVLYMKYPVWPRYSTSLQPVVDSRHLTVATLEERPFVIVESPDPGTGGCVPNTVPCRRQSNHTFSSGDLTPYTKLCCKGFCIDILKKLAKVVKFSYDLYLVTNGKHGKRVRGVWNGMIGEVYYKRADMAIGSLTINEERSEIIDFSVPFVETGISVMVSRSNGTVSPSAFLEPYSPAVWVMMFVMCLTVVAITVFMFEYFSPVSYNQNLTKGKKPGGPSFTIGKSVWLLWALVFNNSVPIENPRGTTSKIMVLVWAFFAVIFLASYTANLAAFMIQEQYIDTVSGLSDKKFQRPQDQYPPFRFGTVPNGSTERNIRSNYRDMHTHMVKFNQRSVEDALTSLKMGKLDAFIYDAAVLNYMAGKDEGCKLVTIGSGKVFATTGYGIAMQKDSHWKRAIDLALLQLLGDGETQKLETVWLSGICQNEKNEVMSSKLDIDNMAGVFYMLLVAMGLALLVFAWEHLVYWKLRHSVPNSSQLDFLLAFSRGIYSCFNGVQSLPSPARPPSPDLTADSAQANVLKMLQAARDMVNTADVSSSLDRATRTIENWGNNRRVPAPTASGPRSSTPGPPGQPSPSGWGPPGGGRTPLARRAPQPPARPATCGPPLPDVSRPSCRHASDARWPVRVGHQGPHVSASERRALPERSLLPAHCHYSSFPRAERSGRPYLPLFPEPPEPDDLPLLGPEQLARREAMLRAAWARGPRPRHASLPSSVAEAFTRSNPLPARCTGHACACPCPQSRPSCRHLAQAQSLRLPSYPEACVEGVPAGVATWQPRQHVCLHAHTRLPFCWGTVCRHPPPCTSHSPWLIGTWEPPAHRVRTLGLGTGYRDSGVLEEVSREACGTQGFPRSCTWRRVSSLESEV

With `c1ccc(CC2CCN(CCCOc3ccccc3)CC2)cc1` [Ex. 2, 4-Benzyl-1-(3-phenoxypropyl)piperidine], the IC50 in test [1] is 89 µM; in test [3], 1.1 µM; in test [4], above 100 µM. The compound also returned an ED50 in test [2] of 3 mg/kg.

For the compound `Cl.O=Cc1cccc(OCCN2CCC(Cc3ccccc3)CC2)c1` [Ex. 15, 3-((2-(4-Benzylpiperidin-1-yl)ethyl)oxy)benzaldehyde hydrochloride], the 50% effect level in test [2] (ED50) was put at a dose of 100 mg/kg. Moreover, the IC50 is 1.2 µM in test [3] and above 100 µM in test [4].

As for `ON=Cc1cccc(OCCN2CCC(Cc3ccccc3)CC2)c1` [Ex. 16, 3-((2-(4-Benzylpiperidin-1-yl)ethyl)oxy)benzaldehyde oxime], in test [2], it took a dose of 2.5 mg/kg to reach the 50% effect level (ED50). The IC50 is 0.5 µM in test [3] and above 100 µM in test [4].

Take `NC(=O)Cc1cccc(OCCN2CCC(Cc3ccccc3)CC2)c1` [Ex. 19, 1-(2-(3-(Aminocarbonylmethyl)phenoxy)ethyl)-4-benzylpiperidine]: in test [2], the 50% effect level (ED50) was put at a dose of 6 mg/kg. In test [3], the IC50 stood at 0.35 µM.

On to `O=[N+]([O-])c1ccc(OCCN2CCC(Cc3ccc(Cl)cc3)CC2)cc1` [Ex. 27, 4-(4-Chlorobenzyl)-1-(2-(4-nitrophenoxy)ethyl)piperidine hydrobromide], for which the 50% effect level in test [2] (ED50) was put at a dose of 5 mg/kg. The IC50 in test [3] is 5 µM; in test [4], above 100 µM.

As to `Fc1ccc(CC2CCN(CCOc3ccc(F)cc3)CC2)cc1` [Ex. 33, 4-(4-Fluorobenzyl)-1-(2-(4-fluorophenoxy)ethyl)piperidine hydrochloride], in test [2], it took a dose of 4 mg/kg to reach the 50% effect level (ED50). In addition, the IC50 in test [3] is 2 µM; in test [4], above 100 µM.

As to `Nc1cccc(OCCN2CCC(Cc3ccccc3)CC2)c1N` [Ex. 53, 4-Benzyl-1-[2-(2,3-diaminophenoxy)ethyl]piperidine], it took a dose of 2.5 mg/kg to reach the 50% effect level in test [2] (ED50). Besides, the IC50 in test [3] was 0.31 µM; in test [4], above 100 µM.

`Nc1ccc(OCCN2CCC(Cc3ccccc3)CC2)cc1N` [Ex. 57, 4-Benzyl-1-[2-(3,4-diaminophenoxy)ethyl]piperidine]: it took a dose of 6.5 mg/kg to reach the 50% effect level in test [2] (ED50). The IC50 in test [3] is 0.3 µM; in test [4], above 100 µM.

With `Nc1ccccc1OCCN1CCC(Cc2ccccc2)CC1` [Ex. 61, 4-Benzyl-1-[2-(2-aminophenoxy)ethyl]piperidine], the 50% effective dose (ED50) in test [2] stood at 2.5 mg/kg. Besides, the IC50 in test [3] was 0.3 µM; in test [4], above 100 µM.

`Nc1cccc(OCCN2CCC(Cc3ccccc3)CC2)c1` [Ex. 63, 4-Benzyl-1-[2-(3-aminophenoxy)ethyl]piperidine] gave a median effective dose (ED50) in test [2] of 3 mg/kg. For the same compound, the figures for the IC50 in test [3] and in test [4] were 0.5 µM and above 100 µM, respectively.

The compound `Nc1ccc(OCCN2CCC(Cc3ccccc3)CC2)cc1` [Ex. 65, 4-Benzyl-1-[2-(4-aminophenoxy)ethyl]piperidine] gave an ED50 in test [2] of 6 mg/kg.

As for `COc1ccc(OCCN2CCC(Cc3ccccc3)CC2)cc1` [Ex. 70], in test [2], it took a dose of 1.5 mg/kg to reach the 50% effect level (ED50). Also, the values for the IC50 in test [3] and in test [4] were 1 µM and above 100 µM, respectively.

With `c1ccc(CCN2CCC(Cc3ccccc3)CC2)cc1` [Ex. 83, 4-Benzyl-1-(2-phenylethyl)piperidine hydrochloride], the ED50 in test [2] is 2 mg/kg. The figures for the IC50 in test [3] and in test [4] were 1 µM and above 100 µM, respectively.

Take `OC1(Cc2ccccc2)CCN(CCc2ccccc2)CC1` [Ex. 90, 4-Benzyl-4-hydroxy-1-(2-phenylethyl)piperidine hydrochloride]: in test [2], the ED50 is 5 mg/kg. Further, the IC50 was 5 µM in test [3] and above 100 µM in test [4].

In test [2], `O=c1[nH]c2ccccc2n1C1CCN(CCCOc2ccccc2)CC1` [Ex. 96, 4-(2-Keto-1-benzimidazolinyl)-1-(3-phenoxypropyl)piperidine hydrobromide] yielded an ED50 of 3.5 mg/kg. The figures for the IC50 in test [3] and in test [4] were 17 µM and above 100 µM, respectively.

Take `Oc1ccc(OCCN2CCC(Cc3ccc4c(c3)CCCC4)CC2)cc1` [Ex. 139, 4-((5,6,7,8-Tetrahydro-2-naphthyl)methyl)-1-(2-(4-hydroxyphenoxy)ethyl)piperidine hydrochloride]: the IC50 in test [1] was determined as 70 µM; in test [3], 0.25 µM. The compound further gave an ED50 in test [2] of 4.5 mg/kg.

On to `Cl.Oc1ccc(OCCN2CCC(Cc3ccc(F)cc3)CC2)cc1F` [Ex. 150, 1-[2-(4-Hydroxy-3-fluorophenoxy)ethyl]-4-(4-fluorobenzyl)piperidine hydrochloride], for which the median effective dose (ED50) in test [2] was 3 mg/kg. Besides, the IC50 in test [3] is 0.02 µM; in test [4], above 300 µM.

As for `Cc1ccc(CC2CCN(CCOc3cccc(O)c3)CC2)cc1` [Ex. 160, 1-[2-(3-Hydroxyphenoxy)ethyl]-4-(4-methylbenzyl)piperidine hydrochloride], the IC50 turned out to be 60 µM in test [1], 0.2 µM in test [3] and 120 µM in test [4].

`Cc1ccc(CC2CCN(CCOc3ccccc3O)CC2)cc1` [Ex. 161, 1-[2-(2-Hydroxyphenoxy)ethyl]-4-(4-methylbenzyl)piperidine hydrochloride]: the results for the IC50 in test [1], in test [3] and in test [4] were 85 µM, 0.04 µM and 170 µM, respectively.

`CN(CCN1CCC(Cc2ccccc2)CC1)c1ccc(O)cc1` [Ex. 163, 4-Benzyl-1-(2-(N-methyl-4-hydroxyanilino)ethyl)piperidine dihydrochloride]: the IC50 in test [1] is 35 µM; in test [3], 0.1 µM; in test [4], above 300 µM.

With `N=c1[nH]c2ccc(OCCN3CCC(Cc4ccccc4)CC3)cc2[nH]1` [Ex. 172, 4-Benzyl-1-(2-(2-iminobenzimidazol-5-oxy)ethyl)piperidine], the IC50 in test [1] is 140 µM; in test [3], 0.11 µM; in test [4], 50 µM.

`Oc1ccc2cc(OCCN3CCC(Cc4ccc(F)cc4)CC3)ccc2c1` [Ex. 191, 4-(4-Fluorobenzyl)-1-(2-(2-hydroxynaphth-6-oxy)ethyl)piperidine]: the IC50 in test [1] was 25 µM; in test [3] it was 0.1 µM; in test [4] it was above 300 µM.

On to `Cc1ccc(CC2CCN(CCOc3ccc4cc(O)ccc4c3)CC2)cc1` [Ex. 192, 4-(4-Methylbenzyl)-1-(2-(2-hydroxynaphth-6-oxy)ethyl)piperidine], for which the IC50 was above 300 µM in test [1], 0.1 µM in test [3] and above 300 µM in test [4].

On to `O=C1Cc2cc(OCCN3CCC(Cc4ccc(F)cc4)CC3)ccc2N1` [Ex. 195, 4-(4-Fluorobenzyl)-1-(2-(2-oxo-1,3-dihydroindol-5-oxy)ethyl)piperidine], for which the IC50 in test [1] was above 300 µM; in test [3], 0.07 µM; in test [4], above 300 µM.

Usually ED50 stands for the dose at which the effect has come halfway, by size or by number of responders. The low end stands for an effect at a small dose, the high end for a need for a large dose.

For the origin of these results see patent publication US6124323A, “4-substituted piperidine analogs and their use as subtype selective NMDA receptor antagonists” (Warner-Lambert Company, priority 1998, dated 2000).
